# Source: US20250268884A1, “Deuterated Domperidone for Treating Gastroparesis” (CinDome Pharma, Inc., priority 2022, published 2025)
# Key:
# [1] = test system: adults with idiopathic or diabetic gastroparesis; conditions: 10 mg BID, Cohort 1, ITT
# Source text: Gastric emptying may be measured by the gastric emptying breath test (GEBT). The GEBT is known in the art. Succinctly, the GEBT is a nonradioactive stable isotope breath test used in the art to diagnose or monitor gastroparesis. In this test, the ratio of exhaled ^13CO2/^12CO2 is used to determine the rate of gastric emptying after consumption of a standardized, ^13C-enriched meal. In some embodiments, the ^13C-enriched meal is ^13C-Spirulina platensis. In some examples, the test includes consumption of a standardized, ^13C-enriched meal after an 8-hour fast. See, e.g., the Cairn Gastric Emptying Breath Test (GEBT) Administration Guide at https://cairndiagnostics.com/wp-content/uploads/2019/05/Cairn-GEBT-How-To-Guide-updated-07May2019.pdf, which is hereby incorporated by reference. Breath samples are obtained one or more times prior to consumption of the ^13C-enriched meal and then one or more times after meal consumption. The breath samples are then measured using, e.g., a gas isotope ratio mass spectrometer. […]
# Subjects were Evaluated as Follows: • Days −28 to −11: Screening procedures were performed. The ANMS GCSI-DD questionnaire was completed daily for at least 14 days prior to randomization (Day 1); • Days −10 to −3: The ANMS GCSI-DD questionnaire was completed daily. A GEBT was performed on a single day within this window, with breath samples obtained twice prior to consumption of a standardized, carbon-13 (^13C)-enriched meal and then at 45, 90, 120, 150, 180, and 240 minutes after meal consumption after an 8-hour fast. […] On Day 14 (±2 days), the PAGI-SYM and Clinical Grading Assessment questionnaires were completed prior to the final dose of study drug. • A GEBT was administered 30 minutes after study drug administration on Day 14 (±2 days). Breath samples were obtained twice prior to ^13C-enriched meal consumption and then at 45, 90, 120, 150, 180, and 240 minutes after meal consumption after an 8-hour fast. […] Clinical Grading Assessment Scales were also performed.
# The primary efficacy variable was the change from baseline in gastric emptying as measured by GEBT at Day 14.
# The secondary efficacy variables were the following: • The change from baseline in gastric emptying as measured by GEBT T½ at Day 14; • The change from baseline in ANMS GCSI-DD total scores; and • The change from baseline in ANMS GCSI-DD subscale scores.
# [2] = test system: prolactin; test: Prolactin concentration (pharmacodynamic evaluation), Phase 2a; assay type: in vivo, human; conditions: Safety Population
# Source text: Table 14 summarizes prolactin concentration and change from baseline by scheduled time point and treatment for the Safety Population.
# [3] = test system: heart rate in healthy subjects; test: Thorough QT study, placebo-corrected change-from-baseline HR (ΔΔHR); assay type: in vivo, human
# [4] = Thorough QT study, plasma pharmacokinetics; assay type: in vivo, human; conditions: healthy subjects
# Source text: Blood samples for PK determination were drawn at the same time points immediately after the ECG extractions.
smiles,measurement,setting,value
"[2H]c1c([2H])c([2H])c2c([nH]c(=O)n2CCCN2CCC(n3c(=O)[nH]c4cc(Cl)ccc43)CC2)c1[2H] [Deudomperidone, 1-{3-[4-(5-chloro-2-oxo-2,3-dihydro-1H-1,3-benzodiazol-1-yl)piperidin-1yl]propyl}-2,3-dihydro(4,5,6,7-D4)-1H-1,3-benzodiazol-2-one]","GEBT 45 minutes post meal consumption, Day 14, mean",[1],10.74 kPCD
same,"GEBT 45 minutes post meal consumption, change from baseline to Day 14",[1],1.96 kPCD
same,"GEBT 45 minutes post meal consumption, percent change from baseline to Day 14",[1],89.31%
same,"GEBT 90 minutes post meal consumption, Day 14, mean",[1],23.60 kPCD
same,"GEBT 90 minutes post meal consumption, change from baseline to Day 14",[1],3.37 kPCD
same,"GEBT 90 minutes post meal consumption, percent change from baseline to Day 14",[1],56.73%
same,"GEBT 120 minutes post meal consumption, Day 14, mean",[1],32.68 kPCD
same,"GEBT 120 minutes post meal consumption, change from baseline to Day 14",[1],3.86 kPCD
same,"GEBT 120 minutes post meal consumption, percent change from baseline to Day 14",[1],40.17%
same,"GEBT 150 minutes post meal consumption, Day 14, mean",[1],37.13 kPCD
same,"GEBT 150 minutes post meal consumption, change from baseline to Day 14",[1],1.25 kPCD
same,"GEBT 150 minutes post meal consumption, percent change from baseline to Day 14",[1],23.46%
same,"GEBT 180 minutes post meal consumption, Day 14, mean",[1],40.96 kPCD
same,"GEBT 180 minutes post meal consumption, change from baseline to Day 14",[1],1.85 kPCD
same,"GEBT 180 minutes post meal consumption, percent change from baseline to Day 14",[1],20.31%
same,"GEBT 240 minutes post meal consumption, Day 14, mean",[1],41.41 kPCD
same,"GEBT 240 minutes post meal consumption, change from baseline to Day 14",[1],−0.79 kPCD
same,"GEBT 240 minutes post meal consumption, percent change from baseline to Day 14",[1],9.46%
same,"Prolactin, Day 3, mean (SD)",[2]; 5 mg BID,396.7 (185.83) mIU/L
same,"Prolactin, Day 7, mean (SD)",[2]; 5 mg BID,622.9 (317.61) mIU/L
same,"Prolactin, Day 10, mean (SD)",[2]; 5 mg BID,449.7 (147.64) mIU/L
same,"Prolactin, Day 14, mean (SD)",[2]; 5 mg BID,578.0 (205.82) mIU/L
same,"Prolactin, change from baseline to Day 3, mean (SD)",[2]; 5 mg BID,143.4 (124.58) mIU/L
same,"Prolactin, change from baseline to Day 7, mean (SD)",[2]; 5 mg BID,369.7 (263.19) mIU/L
same,"Prolactin, change from baseline to Day 10, mean (SD)",[2]; 5 mg BID,196.4 (99.96) mIU/L
same,"Prolactin, change from baseline to Day 14, mean (SD)",[2]; 5 mg BID,324.8 (187.12) mIU/L
same,"Prolactin, Day 3, mean",[2]; 10 mg BID,570.2 mIU/L
same,"Prolactin, Day 7, mean",[2]; 10 mg BID,640.0 mIU/L
same,"Prolactin, Day 10, mean",[2]; 10 mg BID,734.9 mIU/L
same,"Prolactin, Day 14, mean",[2]; 10 mg BID,774.2 mIU/L
same,"Prolactin, change from baseline to Day 3",[2]; 10 mg BID,351.5 mIU/L
same,"Prolactin, change from baseline to Day 7",[2]; 10 mg BID,421.2 mIU/L
same,"Prolactin, change from baseline to Day 10",[2]; 10 mg BID,512.1 mIU/L
same,"Prolactin, change from baseline to Day 14",[2]; 10 mg BID,555.5 mIU/L
same,"Prolactin, change from baseline to follow-up/early termination","[2]; 10 mg BID, n = 2",−32.5 mIU/L
same,"Prolactin, follow-up/early termination, mean","[2]; 10 mg BID, n = 2",195.0 mIU/L
same,"Prolactin, Day 3, mean",[2]; 20 mg QD,830.5 mIU/L
same,"Prolactin, Day 7, mean",[2]; 20 mg QD,1219.5 mIU/L
same,"Prolactin, Day 10, mean",[2]; 20 mg QD,1264.1 mIU/L
same,"Prolactin, Day 14, mean",[2]; 20 mg QD,1251.9 mIU/L
same,"Prolactin, change from baseline to Day 3",[2]; 20 mg QD,522.1 mIU/L
same,"Prolactin, change from baseline to Day 7",[2]; 20 mg QD,911.1 mIU/L
same,"Prolactin, change from baseline to Day 10",[2]; 20 mg QD,955.8 mIU/L
same,"Prolactin, change from baseline to Day 14",[2]; 20 mg QD,943.6 mIU/L
same,bradycardic outliers,"[3]; 30 mg treatment group, at 5 time points",1
same,ΔΔHR LS Mean,"[3]; 0.5 H Post Dose, 30 mg CIN-102 (Treatment A)",−0.5 bpm
same,ΔΔHR LS Mean,"[3]; 0.5 H Post Dose, 100 mg CIN-102 (Treatment B)",−0.5 bpm
same,ΔΔHR LS Mean,"[3]; 1 H Post Dose, 30 mg CIN-102 (Treatment A)",−1.4 bpm
same,ΔΔHR LS Mean,"[3]; 1 H Post Dose, 100 mg CIN-102 (Treatment B)",−1.1 bpm
same,ΔΔHR LS Mean,"[3]; 1.5 H Post Dose, 30 mg CIN-102 (Treatment A)",−1.0 bpm
same,ΔΔHR LS Mean,"[3]; 1.5 H Post Dose, 100 mg CIN-102 (Treatment B)",−0.7 bpm
same,ΔΔHR LS Mean,"[3]; 2 H Post Dose, 30 mg CIN-102 (Treatment A)",0.4 bpm
same,ΔΔHR LS Mean,"[3]; 2 H Post Dose, 100 mg CIN-102 (Treatment B)",0.2 bpm
same,ΔΔHR LS Mean,"[3]; 2.5 H Post Dose, 30 mg CIN-102 (Treatment A)",−0.7 bpm
same,ΔΔHR LS Mean,"[3]; 2.5 H Post Dose, 100 mg CIN-102 (Treatment B)",−0.8 bpm
same,ΔΔHR LS Mean,"[3]; 3 H Post Dose, 30 mg CIN-102 (Treatment A)",−1.4 bpm
same,ΔΔHR LS Mean,"[3]; 3 H Post Dose, 100 mg CIN-102 (Treatment B)",−1.0 bpm
same,ΔΔHR LS Mean,"[3]; 4 H Post Dose, 30 mg CIN-102 (Treatment A)",0.0 bpm
same,ΔΔHR LS Mean,"[3]; 4 H Post Dose, 100 mg CIN-102 (Treatment B)",0.1 bpm
same,ΔΔHR LS Mean,"[3]; 5 H Post Dose, 30 mg CIN-102 (Treatment A)",−0.3 bpm
same,ΔΔHR LS Mean,"[3]; 5 H Post Dose, 100 mg CIN-102 (Treatment B)",−0.8 bpm
same,ΔΔHR LS Mean,"[3]; 6 H Post Dose, 30 mg CIN-102 (Treatment A)",−0.2 bpm
same,ΔΔHR LS Mean,"[3]; 6 H Post Dose, 100 mg CIN-102 (Treatment B)",−0.5 bpm
same,ΔΔHR LS Mean,"[3]; 8 H Post Dose, 30 mg CIN-102 (Treatment A)",0.7 bpm
same,ΔΔHR LS Mean,"[3]; 8 H Post Dose, 100 mg CIN-102 (Treatment B)",−0.9 bpm
same,ΔΔHR LS Mean,"[3]; 12 H Post Dose, 30 mg CIN-102 (Treatment A)",−0.5 bpm
same,ΔΔHR LS Mean,"[3]; 12 H Post Dose, 100 mg CIN-102 (Treatment B)",−0.8 bpm
same,ΔΔHR LS Mean,"[3]; 24 H Post Dose, 30 mg CIN-102 (Treatment A)",1.1 bpm
same,ΔΔHR LS Mean,"[3]; 24 H Post Dose, 100 mg CIN-102 (Treatment B)",0.1 bpm
same,ΔΔHR LS Mean,"[3]; 36 H Post Dose, 30 mg CIN-102 (Treatment A)",0.5 bpm
same,ΔΔHR LS Mean,"[3]; 36 H Post Dose, 100 mg CIN-102 (Treatment B)",−0.4 bpm
same,ΔΔHR LS Mean,"[3]; 48 H Post Dose, 30 mg CIN-102 (Treatment A)",0.9 bpm
same,ΔΔHR LS Mean,"[3]; 48 H Post Dose, 100 mg CIN-102 (Treatment B)",0.5 bpm
same,tachycardic outliers,[3]; across treatment periods,no tachycardic outliers
same,"mean ΔΔHR, by-time point analysis","[3]; both dose levels, all post-dose time points",below 10 bpm
same,time of highest mean plasma concentration of deuterated domperidone,[4]; 30 mg single dose,1.5 hours post-dose
same,time of highest mean plasma concentration of deuterated domperidone,[4]; 100 mg single dose,2 hours post-dose
